In ChEMBL document CHEMBL1201862, “PubChem BioAssay data set” (2004):
Values belong to the molecule of their own block, whether it stands above or below them. Activity calls are given as the source filed them.

What was measured:
[1] = inhibition of ADAM10 peptide cleavage – biochemical, FRET peptide substrate, recombinant human ADAM10, selectivity assay for ADAM17 exosite inhibitor project, dose response (AID 743259);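 note: ADAM10 enzyme cleaving a FRET peptide substrate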
[2] = viability of uninfected HEp-2 cells – cell-based, HTS, cytotoxicity control for RSV inhibitor project, dose response (AID 2410); format: functional; conditions: human respiratory syncytial virus
[3] = molecular target: T1, Disintegrin and metalloproteinase domain-containing protein 17 (Homo sapiens, UniProt P78536); experiment: exosite inhibitors of ADAM17, dose response, biochemical (AID 743260)
T1 sequence (P78536 whole entry, the tested form may be a part): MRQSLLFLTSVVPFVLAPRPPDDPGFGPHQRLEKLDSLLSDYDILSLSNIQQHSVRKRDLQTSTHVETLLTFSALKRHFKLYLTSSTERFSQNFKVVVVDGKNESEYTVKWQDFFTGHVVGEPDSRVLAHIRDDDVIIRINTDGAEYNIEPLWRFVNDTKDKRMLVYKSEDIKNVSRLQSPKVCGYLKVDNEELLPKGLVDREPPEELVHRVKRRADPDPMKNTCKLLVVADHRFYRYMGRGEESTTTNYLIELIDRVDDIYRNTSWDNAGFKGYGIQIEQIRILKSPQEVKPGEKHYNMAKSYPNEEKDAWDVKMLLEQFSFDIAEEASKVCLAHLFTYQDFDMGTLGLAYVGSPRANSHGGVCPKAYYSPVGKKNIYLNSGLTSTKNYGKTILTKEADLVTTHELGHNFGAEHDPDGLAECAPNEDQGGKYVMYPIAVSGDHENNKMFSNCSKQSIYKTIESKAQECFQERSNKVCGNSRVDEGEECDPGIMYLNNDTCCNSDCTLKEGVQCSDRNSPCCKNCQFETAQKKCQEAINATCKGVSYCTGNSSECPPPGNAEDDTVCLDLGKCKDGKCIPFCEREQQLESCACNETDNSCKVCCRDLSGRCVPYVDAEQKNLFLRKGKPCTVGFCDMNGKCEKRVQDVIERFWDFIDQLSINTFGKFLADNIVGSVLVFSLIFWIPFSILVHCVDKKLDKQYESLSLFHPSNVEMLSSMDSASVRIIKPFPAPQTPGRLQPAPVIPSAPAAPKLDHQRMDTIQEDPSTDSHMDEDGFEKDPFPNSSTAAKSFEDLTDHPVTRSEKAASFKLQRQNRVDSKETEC

[4] = tested on: Vero; experiment: viability loss in Vero cells – cell-based, plate reader, cherry-pick samples, cytotoxicity control, dose response (AID 687020); format: functional; conditions: Chlorocebus sabaeus
[5] = blockers of HIV-1 envelope-mediated cell-cell fusion – cherry-pick, dose response (AID 652057); format: functional, cell-based
[6] = Luminescence Cell-Based Dose Retest to Confirm Inhibitors of Cancer Stem Cells. [Related pubchem assays (depositor defined):AID2717, AID2721]; format: functional; conditions: Homo sapiens
[7] = blockers of HIV-1 ZM109 envelope-driven cell-cell fusion – HeLa effector, CEM target cells, luciferase, cherry-pick, dose response (AID 652058); format: functional, cell-based;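 note: luciferase signal from HIV-1 Env mediated cell-cell fusion of effector and target cells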
[8] = viability loss in CEM21 cells – cell-based, CellTiter-Glo luminescence, cherry-picked, cytotoxicity control for viral fusion inhibitor project, dose response (AID 652042); format: functional;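 note: potency for signal decrease meaning cytotoxicity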
[9] = HIV-1 AD8 envelope cell-cell fusion blockers – cherry-pick, dose response (AID 652062); format: functional, cell-based;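 note: luciferase signal from cell-cell fusion driven by HIV-1 clade B AD8 Env; potency is for inhibitors of fusion seen as a drop in luminescence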
[10] = off-target signal loss in HeLa-CEM21 co-culture – HeLa F-luc CTL cells, cherry-picked, counter-screen for HIV-1 Env fusion inhibitor project, dose response (AID 652040); format: functional, cell-based;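 note: potency for signal decrease marking cytotoxic or nonspecific inhibition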
[11] = molecular target: Transthyretin (Homo sapiens, UniProt P02766); experiment: Luminescence-based cell-based high throughput dose response assay to identify activators of Transthyretin (TTR) transcription.; format: functional
[12] = molecular target: T2, Heat shock factor protein 1 (Mus musculus, UniProt P38532); experiment: decrease of HSF1-responsive luciferase luminescence – cell-based, NIH3T3, dose retest, confirmation (AID 2382); format: functional;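 note: NIH3T3 fibroblasts with HSF1-driven luciferase reporter stressed by proteasome inhibitor MG132; luminescence from HSF1-driven luciferase expression after 8 hours of MG132 stress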
T2 sequence (P38532 whole entry): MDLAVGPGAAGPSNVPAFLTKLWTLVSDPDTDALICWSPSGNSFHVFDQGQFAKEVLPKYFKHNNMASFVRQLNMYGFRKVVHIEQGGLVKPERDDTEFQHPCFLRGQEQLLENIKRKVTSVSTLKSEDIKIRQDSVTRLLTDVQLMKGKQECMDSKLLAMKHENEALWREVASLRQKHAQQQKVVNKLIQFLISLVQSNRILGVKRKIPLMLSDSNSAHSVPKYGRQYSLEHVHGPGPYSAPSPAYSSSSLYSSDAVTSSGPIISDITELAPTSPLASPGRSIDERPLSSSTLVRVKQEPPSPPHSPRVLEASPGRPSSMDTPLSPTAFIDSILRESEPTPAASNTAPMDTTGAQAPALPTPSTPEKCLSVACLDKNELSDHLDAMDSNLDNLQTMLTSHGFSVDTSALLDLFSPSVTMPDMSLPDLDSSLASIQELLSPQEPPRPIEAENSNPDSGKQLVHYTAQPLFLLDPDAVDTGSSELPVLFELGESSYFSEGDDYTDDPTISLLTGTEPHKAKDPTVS

[13] = molecular target: T3, Leucine aminopeptidase (Plasmodium falciparum 3D7, UniProt Q8IL11); experiment: P. falciparum M17LAP inhibitors, primary screen, biochemical, fluorogenic H-Leu-NHMec substrate, 1536-well (AID 1619); format: functional
T3 sequence (Q8IL11 whole entry): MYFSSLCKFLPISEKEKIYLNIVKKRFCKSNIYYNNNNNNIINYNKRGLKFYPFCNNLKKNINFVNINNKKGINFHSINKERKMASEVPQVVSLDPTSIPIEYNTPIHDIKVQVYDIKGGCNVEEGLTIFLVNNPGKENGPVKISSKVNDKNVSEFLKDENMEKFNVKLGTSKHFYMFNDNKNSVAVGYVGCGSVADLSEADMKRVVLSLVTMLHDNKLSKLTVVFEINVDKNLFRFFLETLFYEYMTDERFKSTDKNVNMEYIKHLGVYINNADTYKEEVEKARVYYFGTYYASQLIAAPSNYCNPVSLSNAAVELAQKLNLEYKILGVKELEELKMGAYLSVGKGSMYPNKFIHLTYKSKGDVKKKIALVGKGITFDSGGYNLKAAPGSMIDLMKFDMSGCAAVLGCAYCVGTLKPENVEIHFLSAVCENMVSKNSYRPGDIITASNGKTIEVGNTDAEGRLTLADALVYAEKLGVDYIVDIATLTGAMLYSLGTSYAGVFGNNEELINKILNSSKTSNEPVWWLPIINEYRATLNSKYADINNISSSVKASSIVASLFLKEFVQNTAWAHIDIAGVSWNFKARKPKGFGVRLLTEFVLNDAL

[14] = molecular target: 1-phosphatidylinositol 4,5-bisphosphate phosphodiesterase beta-3 (Homo sapiens, UniProt Q01970); experiment: Fluorescence-based biochemical high throughput dose response assay to identify inhibitors of phospholipase C isozymes (PLC-B3).
1-phosphatidylinositol 4,5-bisphosphate phosphodiesterase beta-3, sequence (Q01970 whole entry): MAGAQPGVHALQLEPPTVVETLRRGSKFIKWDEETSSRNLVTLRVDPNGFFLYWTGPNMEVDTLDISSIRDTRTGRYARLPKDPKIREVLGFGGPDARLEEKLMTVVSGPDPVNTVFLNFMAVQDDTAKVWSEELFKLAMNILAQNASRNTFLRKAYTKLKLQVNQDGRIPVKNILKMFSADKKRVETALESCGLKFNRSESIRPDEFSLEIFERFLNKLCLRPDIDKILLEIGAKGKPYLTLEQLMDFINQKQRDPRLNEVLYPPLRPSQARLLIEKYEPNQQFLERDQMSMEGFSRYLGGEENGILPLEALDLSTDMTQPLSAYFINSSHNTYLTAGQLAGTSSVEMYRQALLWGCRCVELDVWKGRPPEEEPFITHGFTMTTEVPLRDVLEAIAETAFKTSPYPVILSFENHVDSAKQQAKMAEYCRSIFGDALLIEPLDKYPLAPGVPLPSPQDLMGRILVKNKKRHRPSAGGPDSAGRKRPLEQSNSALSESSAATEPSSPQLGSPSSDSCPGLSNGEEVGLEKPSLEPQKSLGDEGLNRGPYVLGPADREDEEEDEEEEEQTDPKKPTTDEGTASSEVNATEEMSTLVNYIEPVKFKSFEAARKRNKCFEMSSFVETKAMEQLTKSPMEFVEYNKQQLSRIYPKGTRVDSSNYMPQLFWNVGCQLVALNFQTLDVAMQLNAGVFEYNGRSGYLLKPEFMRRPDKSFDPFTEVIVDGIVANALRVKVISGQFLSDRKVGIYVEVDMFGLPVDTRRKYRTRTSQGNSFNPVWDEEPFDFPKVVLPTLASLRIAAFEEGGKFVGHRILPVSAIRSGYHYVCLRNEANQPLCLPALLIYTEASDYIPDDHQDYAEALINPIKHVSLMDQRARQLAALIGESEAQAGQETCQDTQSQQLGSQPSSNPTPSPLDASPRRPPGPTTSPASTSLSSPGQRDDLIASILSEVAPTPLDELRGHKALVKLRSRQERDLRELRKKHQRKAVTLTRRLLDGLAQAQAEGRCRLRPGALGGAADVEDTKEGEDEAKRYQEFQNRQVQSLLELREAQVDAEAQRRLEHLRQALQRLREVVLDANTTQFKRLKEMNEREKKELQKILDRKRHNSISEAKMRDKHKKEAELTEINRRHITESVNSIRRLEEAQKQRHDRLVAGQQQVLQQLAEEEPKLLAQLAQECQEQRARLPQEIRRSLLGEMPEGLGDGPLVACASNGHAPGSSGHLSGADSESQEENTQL

[15] = tested on: Vero; experiment: viability of Vero cells under compound – cytotoxicity control for flavivirus capping enzyme inhibitors (AID 588742); format: functional; conditions: Chlorocebus sabaeus
[16] = molecular target: 1-phosphatidylinositol 4,5-bisphosphate phosphodiesterase gamma-1 (Homo sapiens, UniProt P19174); experiment: Counterscreen for inhibitors of phospholipase C isozymes (PLC-B3): Fluorescence-based biochemical high throughput dose response assay to identify inhibitors of phospholipase C isozymes (PLC-gamma1).
1-phosphatidylinositol 4,5-bisphosphate phosphodiesterase gamma-1, sequence (P19174 whole entry): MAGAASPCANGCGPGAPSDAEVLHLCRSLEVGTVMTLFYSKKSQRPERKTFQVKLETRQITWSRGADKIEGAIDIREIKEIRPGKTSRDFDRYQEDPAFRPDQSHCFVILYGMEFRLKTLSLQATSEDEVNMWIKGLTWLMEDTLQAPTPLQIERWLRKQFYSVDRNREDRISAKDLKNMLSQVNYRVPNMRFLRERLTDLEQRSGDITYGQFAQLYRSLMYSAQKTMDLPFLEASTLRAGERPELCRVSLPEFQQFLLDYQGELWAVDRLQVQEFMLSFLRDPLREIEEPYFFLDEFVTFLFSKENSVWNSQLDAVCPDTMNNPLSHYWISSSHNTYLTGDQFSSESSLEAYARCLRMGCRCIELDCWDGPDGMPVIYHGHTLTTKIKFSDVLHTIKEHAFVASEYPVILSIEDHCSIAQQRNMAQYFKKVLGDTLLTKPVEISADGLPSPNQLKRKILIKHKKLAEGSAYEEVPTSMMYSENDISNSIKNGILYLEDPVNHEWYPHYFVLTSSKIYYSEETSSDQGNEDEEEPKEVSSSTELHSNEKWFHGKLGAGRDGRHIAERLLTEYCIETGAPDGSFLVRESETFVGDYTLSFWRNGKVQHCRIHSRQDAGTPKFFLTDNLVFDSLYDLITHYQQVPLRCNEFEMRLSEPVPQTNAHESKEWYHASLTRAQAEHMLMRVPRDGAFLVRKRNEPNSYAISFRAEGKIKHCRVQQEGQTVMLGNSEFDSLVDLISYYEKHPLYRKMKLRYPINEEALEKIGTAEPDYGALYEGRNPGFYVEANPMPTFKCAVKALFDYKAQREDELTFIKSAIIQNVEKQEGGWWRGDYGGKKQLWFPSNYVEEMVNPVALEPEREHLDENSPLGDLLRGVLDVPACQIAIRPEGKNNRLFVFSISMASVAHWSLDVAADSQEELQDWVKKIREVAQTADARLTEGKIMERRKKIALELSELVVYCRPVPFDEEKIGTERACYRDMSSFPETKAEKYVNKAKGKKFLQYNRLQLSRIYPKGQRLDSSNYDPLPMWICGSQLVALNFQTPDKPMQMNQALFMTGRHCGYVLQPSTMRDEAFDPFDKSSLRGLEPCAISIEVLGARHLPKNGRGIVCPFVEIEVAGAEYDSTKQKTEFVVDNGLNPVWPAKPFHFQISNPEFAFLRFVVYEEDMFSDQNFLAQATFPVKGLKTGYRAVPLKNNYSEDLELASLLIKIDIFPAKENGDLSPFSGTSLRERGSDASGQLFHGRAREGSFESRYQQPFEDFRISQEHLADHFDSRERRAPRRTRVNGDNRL

[17] = molecular target: Genome polyprotein (dengue virus type 2, UniProt P29990); experiment: flavivirus cap methylation enzyme inhibition – biochemical, confirmation dose response, primary screen (AID 588689); format: functional
Genome polyprotein, sequence (P29990 2492-3391 limits assumed): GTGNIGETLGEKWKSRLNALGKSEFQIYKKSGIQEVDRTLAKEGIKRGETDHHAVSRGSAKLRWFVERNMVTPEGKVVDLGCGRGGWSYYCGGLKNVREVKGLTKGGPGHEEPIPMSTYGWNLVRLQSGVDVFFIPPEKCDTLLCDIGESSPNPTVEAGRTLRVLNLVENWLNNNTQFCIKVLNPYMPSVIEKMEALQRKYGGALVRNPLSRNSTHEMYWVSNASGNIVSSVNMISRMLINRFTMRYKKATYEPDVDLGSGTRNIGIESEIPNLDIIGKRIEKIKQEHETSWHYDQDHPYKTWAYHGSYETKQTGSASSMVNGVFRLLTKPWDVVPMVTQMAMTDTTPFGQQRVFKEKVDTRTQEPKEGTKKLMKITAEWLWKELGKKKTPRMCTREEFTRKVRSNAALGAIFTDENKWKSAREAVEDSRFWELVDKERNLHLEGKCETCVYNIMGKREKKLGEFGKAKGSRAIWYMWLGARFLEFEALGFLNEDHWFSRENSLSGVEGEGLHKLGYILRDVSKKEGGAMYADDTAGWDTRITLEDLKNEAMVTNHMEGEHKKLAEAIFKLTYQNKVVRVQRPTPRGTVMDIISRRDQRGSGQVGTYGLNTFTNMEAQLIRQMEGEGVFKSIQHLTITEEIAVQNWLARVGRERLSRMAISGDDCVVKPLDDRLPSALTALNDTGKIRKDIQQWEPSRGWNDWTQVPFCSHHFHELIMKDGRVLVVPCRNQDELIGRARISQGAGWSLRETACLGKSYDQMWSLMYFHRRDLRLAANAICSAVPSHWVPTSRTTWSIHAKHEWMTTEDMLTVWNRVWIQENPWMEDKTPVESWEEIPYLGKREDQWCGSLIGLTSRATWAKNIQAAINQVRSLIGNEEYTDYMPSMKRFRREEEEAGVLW

[18] = non-specific 3'UTR reporter inhibition in Clone20-Shn3RL – cell-based, Renilla luciferase, cherry-picked, counter-screen for Shn3 inhibitor project, dose response (AID 624133); format: functional
[19] = reduction of Shn3 3'UTR-driven luciferase in osteoblasts – cell-based, Clone20 osteoblasts, firefly luciferase, cherry-picked, dose response (AID 624132); format: functional;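 note: firefly luciferase luminescence from reporter carrying the Shn3 3'UTR in osteoblasts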
[20] = potency of ADAM10 substrate cleavage blockers – biochemical, QFRET, dose response (AID 743254);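 note: ADAM10 enzyme with the DM2 quenched FRET peptide as substrate; EDANS fluorescence gain as the protease cuts the substrate; inhibitor potency against ADAM10 proteolytic activity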
[21] = molecular target: Paired box protein Pax-8 (Homo sapiens, UniProt Q06710); experiment: PAX8 transcriptional activity inhibition in RMG-I – RMG-I cells, luciferase, cherry-pick, dose response (AID 687027); format: functional, cell-based;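 note: luciferase reporter driven by Pax8 target thyroperoxidase promoter measured by SteadyGlo luminescence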
Paired box protein Pax-8, sequence (Q06710 whole entry, the tested form may be a part): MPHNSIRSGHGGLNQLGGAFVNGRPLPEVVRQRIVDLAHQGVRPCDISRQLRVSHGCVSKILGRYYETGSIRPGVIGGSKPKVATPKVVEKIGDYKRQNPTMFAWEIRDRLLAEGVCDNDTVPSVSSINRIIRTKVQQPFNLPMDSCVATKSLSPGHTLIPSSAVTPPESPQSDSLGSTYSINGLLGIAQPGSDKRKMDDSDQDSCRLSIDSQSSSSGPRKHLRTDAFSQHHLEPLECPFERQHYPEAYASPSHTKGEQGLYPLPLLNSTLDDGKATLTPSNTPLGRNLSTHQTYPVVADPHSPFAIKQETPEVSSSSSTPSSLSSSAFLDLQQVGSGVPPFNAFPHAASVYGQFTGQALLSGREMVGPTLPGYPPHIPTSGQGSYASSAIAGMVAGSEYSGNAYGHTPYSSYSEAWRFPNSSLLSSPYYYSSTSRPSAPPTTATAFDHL

[22] = molecular target: T1, Disintegrin and metalloproteinase domain-containing protein 17; experiment: inhibition of ADAM17 substrate cleavage – biochemical, quenched FRET substrate, counter-screen for ADAM10 exosite inhibitor project, dose response (AID 743253)
[23] = molecular target: T4, Sentrin-specific protease 1 (Homo sapiens, UniProt Q9P0U3); experiment: Dose response confirmation of small molecule inhibitors of the catalytic domain of the SUMO protease, SENP1 in a FRET assay.; format: functional; conditions: read-out: IC50_Mean
T4 sequence (Q9P0U3 whole entry): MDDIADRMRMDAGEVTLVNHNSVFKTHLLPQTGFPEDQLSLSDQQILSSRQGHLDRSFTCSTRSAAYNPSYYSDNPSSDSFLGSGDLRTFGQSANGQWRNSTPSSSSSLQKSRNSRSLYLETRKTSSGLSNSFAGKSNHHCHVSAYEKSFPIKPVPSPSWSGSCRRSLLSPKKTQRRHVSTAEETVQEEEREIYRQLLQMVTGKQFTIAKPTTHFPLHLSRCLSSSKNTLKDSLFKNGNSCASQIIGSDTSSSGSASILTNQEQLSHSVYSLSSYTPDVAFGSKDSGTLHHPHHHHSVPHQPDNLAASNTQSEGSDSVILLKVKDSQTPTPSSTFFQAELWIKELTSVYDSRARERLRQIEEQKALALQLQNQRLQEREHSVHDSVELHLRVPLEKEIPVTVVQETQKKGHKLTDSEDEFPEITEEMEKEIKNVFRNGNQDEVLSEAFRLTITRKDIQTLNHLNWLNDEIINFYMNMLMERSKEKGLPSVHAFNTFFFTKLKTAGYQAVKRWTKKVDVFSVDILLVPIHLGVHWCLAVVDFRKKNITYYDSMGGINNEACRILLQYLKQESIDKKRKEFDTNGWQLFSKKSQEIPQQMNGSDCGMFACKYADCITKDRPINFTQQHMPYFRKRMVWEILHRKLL

[24] = molecular target: T4, Sentrin-specific protease 1; experiment: SENP1 catalytic domain blockers, concentration series – biochemical, kinetic FRET, dose response (AID 651697); format: functional; conditions: read-out: IC50_Mean
[25] = molecular target: Dual specificity tyrosine-phosphorylation-regulated kinase 1A (Rattus norvegicus, UniProt Q63470); format: biochemical, Homo sapiens

IC50 [3]: > 69.5 µM (inactive)
Compound: CCOc1cc2c3c(c1)C1(C(=O)N3C(C)(C)C=C2C)C(C#N)=C(N)Oc2cc(O)ccc21 (stereo not drawn)
IC50 [1]: > 69.5 µM (inactive)
CC50 [2]: 11.8 µM (active)

Compound: CSc1ccc(S(=O)(=O)NC2CC3CCC2C3)cc1 (stereo not drawn)
AC50 [4]: 16.8 µM (active)

Compound: Cc1nn(Cc2ccc(Cl)c(Cl)c2)c(C)c1NC(=O)c1cc(-c2ccc3c(c2)OCO3)on1
AC50 [5]: 20.3 µM (active)
AC50 [6]: 471 nM (active)
AC50 [7]: 28.7 µM (active)
AC50 [8]: 20.6 µM (active)
AC50 [9]: 56 µM (active)
AC50 [10]: > 70 µM (inactive)

EC50 [11]: > 167 µM (inactive)
Compound: Cc1ccc(Nc2c3c(nc4ncnn24)CCC3)cc1

Compound: CC1(C)CC(NC(=O)COc2ccccc2Cl)CC(C)(C)N1
EC50 [12]: 2.65 µM (active)
AC50 [4]: 33.7 µM (active)

IC50 [13]: 51.5 µM (active)
IC50 [14]: > 122 µM (inactive)
IC50 [16]: 23.7 µM (inactive)
IC50 [17]: 99.6 µM (active)
Compound: O=Cc1cc(N=Nc2cccc(C(=O)O)c2)ccc1O
CC50 [15]: > 40 µM (active)

Compound: C=CCC[C@H](Cc1ccc(F)cc1)C(=O)OC[C@H](Cc1c[nH]c2ccccc12)NC(=O)[C@H](CC=C)CC(=O)N(CCO)Cc1ccccc1
AC50 [18]: 20.1 µM (active)
AC50 [19]: 11.7 µM (active)
IC50 [20]: 6.93 µM (active)
AC50 [21]: 12.9 µM (active)
IC50 [22]: > 69.5 µM (inactive)

Compound: Cc1ccc2c(c1)C(=C(C#N)C#N)CCN2
AC50 [7]: 2 µM (active)
IC50 [23]: 11 µM (active)
IC50 [24]: 20.1 µM (inactive)
AC50 [25]: 5.69 µM (active)
AC50 [10]: 42.3 µM (active)
